The values below come from patent US20230085307A1, “PYRIDAZINONE COMPOUND AND HERBICIDE” (NISSAN CHEMICAL CORPORATION, priority 2019, published 2023).

Assay [1] deals with oval-leafed pondweed. Kind of assay: Test Example 1: herbicidal activity, application before weed generation under submerged conditions (Table 16, symbol C). Format: in vivo, oval-leafed pondweed (Monochoria vaginalis). In outline: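 Emulsion formulation, water-diluted to set dose, was put onto the flooded surface (4 cm depth, alluvial soil) the same day weeds were sown and 2.5-leaf rice transplanted. After 3 weeks at 25-30 °C under glass, each species was rated 0 (≤5% kill) to 5 (≥90% kill).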

The subject of another assay is late watergrass. The experiment in a line: Test Example 2: herbicidal activity, application during weed generation under submerged conditions (Table 17, symbol A). The settings on record: application during weed generation, submerged conditions. Format: in vivo, late watergrass (Echinochloa oryzicola). In outline: (§1)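 Wagner pot, alluvial soil, 4 cm flood; mixed sowing of all species; greenhouse 25° C.–30° C. Emulsifiable formulation, water-diluted to predetermined dose, applied to paddy water at 1–2 leaf stage. Effect rated at 3 wk using the earlier test's scoring criteria.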

For another assay, the system named is Japanese bulrush. Kind of assay: Test Example 2: herbicidal activity, application during weed generation under submerged conditions (Table 17, symbol B). The class given is in vivo, Japanese bulrush (Schoenoplectus juncoides). The settings on record: application during weed generation, submerged conditions. The gist of the method:
as §1

For assay [2], the system named is oval-leafed pondweed. Kind of assay: Test Example 2: herbicidal activity, application during weed generation under submerged conditions (Table 17, symbol C). The class given is in vivo, oval-leafed pondweed (Monochoria vaginalis). As to conditions: application during weed generation, submerged conditions. The gist of the method: as §1
The test system of the next assay is Chinese sprangletop. Kind of assay: Test Example 3: herbicidal effect by foliage application, Wagner pot (Table 18, symbol D). The class given is in vivo, chinese sprangletop (Leptochloa chinensis). The gist of the method: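 Plants were sown in alluvial soil held under 0.1–0.5 cm standing water and grown 14 days in a greenhouse at 25–30 °C. An emulsifiable formulation, water-diluted to the set dose, was then sprayed onto the foliage, and effects were scored three weeks later using previously defined criteria.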

For another assay, the system named is barnyard grass. The experiment in a line: Test Example 4: herbicidal effect by soil treatment (Table 19, symbol H). The class given is in vivo, barnyard grass (Echinochloa crus-galli). In outline:
(§2)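 Three weeks of greenhouse growth at 25° C. to 30° C. followed a uniform surface spray of water-diluted emulsion at a predetermined herbicide amount. Seeds had been sown beforehand under about 1.5 cm of sterilized diluvial soil. Grading followed criteria set out in an earlier test.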

The next assay has as its system wild oat. Kind of assay: Test Example 4: herbicidal effect by soil treatment (Table 19, symbol I). Format: in vivo, wild oat (Avena fatua). The gist of the method: as §2
In the next assay the test system is blackgrass. The experiment in a line: Test Example 4: herbicidal effect by soil treatment (Table 19, symbol J). The class given is in vivo, blackgrass (Alopecurus myosuroides). In outline: as §2
The next assay has as its system redroot pigweed. The experiment in a line: Test Example 4: herbicidal effect by soil treatment (Table 19, symbol N). The class given is in vivo, redroot pigweed (Amaranthus retroflexus). In outline:
as §2

Assay [3] deals with lambsquarters. Kind of assay: Test Example 4: herbicidal effect by soil treatment (Table 19, symbol O). Format: in vivo, lambsquarters (Chenopodium album). The gist of the method:
as §2

Assay [4] relates to chickweed. Kind of assay: Test Example 4: herbicidal effect by soil treatment (Table 19, symbol P). The class given is in vivo, common chickweed (Stellaria media). The gist of the method: as §2
In assay [5] the test system is false cleavers. Kind of assay: Test Example 4: herbicidal effect by soil treatment (Table 19, symbol Q). The class given is in vivo, false cleavers (Galium spurium). In outline:
as §2

For another assay, the system named is Italian ryegrass. Kind of assay: Test Example 5: herbicidal effect by foliage application, plastic box (Table 20, symbol K). Format: in vivo, Italian ryegrass (Lolium multiflorum). The settings on record: foliage application, three weeks after application. The gist of the method: (§3)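 Plants sown in sterilized diluvial soil and grown 14 days in a greenhouse at 25° C to 30° C, then sprayed on the foliage with the compound's emulsion diluted in water to a predetermined herbicide amount. Injury to weeds and crops scored three weeks after application on a visual rating scale.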

In assay [6] the test system is lambsquarters. Kind of assay: Test Example 5: herbicidal effect by foliage application, plastic box (Table 20, symbol O). Format: in vivo, lambsquarters (Chenopodium album). As to conditions: foliage application, three weeks after application. In outline:
as §3

Assay [7] relates to chickweed. Kind of assay: Test Example 5: herbicidal effect by foliage application, plastic box (Table 20, symbol P). The settings on record: foliage application, three weeks after application. The class given is in vivo, common chickweed (Stellaria media). The gist of the method: as §3
The subject of assay [8] is false cleavers. Kind of assay: Test Example 5: herbicidal effect by foliage application, plastic box (Table 20, symbol Q). The class given is in vivo, false cleavers (Galium spurium). As to conditions: foliage application, three weeks after application. The gist of the method:
as §3

Another assay has as its system persian speedwell. The experiment in a line: Test Example 5: herbicidal effect by foliage application, plastic box (Table 20, symbol R). Format: in vivo, Persian speedwell (Veronica persica). The settings on record: foliage application, three weeks after application. In outline: as §3
The mark [9] stands for this setting: amount of applied herbicide 320 g/ha.
Where [10] appears, read: amount of applied herbicide 296 g/ha.

Regarding `CCOc1ccc2c(-c3c(O)c(C)nn(C)c3=O)c(-c3ccc(OC)cc3)sc2c1` [3-091], in the assay with oval-leafed pondweed [1] (setting [9]), the “Herbicidal effect, C: oval-leafed pondweed” value (shortened to “Herbicidal effect, C”) was 4 (Herbicidal rate of 70% or more and less than 90%). Also, in the assay on late watergrass (AAH 320 g/ha), the “herbicidal effect rating, A: late watergrass” value is listed as 0 (Herbicidal rate of 5% or less (almost no effect)). Besides, the “herbicidal effect rating, B: Japanese bulrush” value (from here on “herbicidal effect rating, B”) in the assay on Japanese bulrush (AAH 320 g/ha) was 3 (Herbicidal rate of 40% or more and less than 70%). Moreover, the “herbicidal effect rating, C: oval-leafed pondweed” value (“herbicidal effect rating, C” below) with oval-leafed pondweed [2] (AAH 320 g/ha) is 3 (Herbicidal rate of 40% or more and less than 70%). For the same compound, the “herbicidal effect on Chinese sprangletop (D)” value (shortened to “herbicidal effect … (D)”) in the assay with Chinese sprangletop (320 g/ha) is 0 (Herbicidal rate of 5% or less (almost no effect)). The “H: barnyard grass, herbicidal effect grade” value (shortened to “H: barnyard grass”) in the assay on barnyard grass (setting [9]) is recorded as 0 (Herbicidal rate of 5% or less (almost no effect)). The “I: wild oat, herbicidal effect grade” value in the assay with wild oat (setting [9]) is given as 0 (Herbicidal rate of 5% or less (almost no effect)). In the assay with blackgrass (setting [9]), the “J: blackgrass, herbicidal effect grade” value is given as 0 (Herbicidal rate of 5% or less (almost no effect)). Also, the “N: redroot pigweed, herbicidal effect grade” value (“N: redroot pigweed” for short) in the assay with redroot pigweed (setting [9]) was 3 (Herbicidal rate of 40% or more and less than 70%). For the same compound, the “O: lambsquarters, herbicidal effect grade” value (“O: lambsquarters” for short) in the assay with lambsquarters [3] (setting [9]) and in the assay with lambsquarters [6] (320 g/ha) was 5 (Herbicidal rate of 90% or more (almost completely withered)) in each case. In addition, the “P: chickweed, herbicidal effect grade” value is 4 (Herbicidal rate of 70% or more and less than 90%) with chickweed [4] (setting [9]); 5 (Herbicidal rate of 90% or more (almost completely withered)) in the assay on chickweed [7] (320 g/ha). Also, the “Q: false cleavers, herbicidal effect grade” value (shortened to “Q: false cleavers”) with false cleavers [5] (setting [9]) and in the assay with false cleavers [8] (320 g/ha) was 5 (Herbicidal rate of 90% or more (almost completely withered)) throughout. Besides, the “K: Italian ryegrass, herbicidal effect grade” value (“K: Italian ryegrass” for short) in the assay with Italian ryegrass (320 g/ha) was 0 (Herbicidal rate of 5% or less (almost no effect)). The “R: persian speedwell, herbicidal effect grade” value (from here on “R: persian speedwell”) with persian speedwell (320 g/ha) was 5 (Herbicidal rate of 90% or more (almost completely withered)).

`CCOc1ccc2c(-c3c(O)c(C)nn(C)c3=O)c(-c3ccc(F)cc3OCC)sc2c1` [3-095]: the “Herbicidal effect, C” value in the assay on oval-leafed pondweed [1] (setting [9]) is recorded as 5 (Herbicidal rate of 90% or more (almost completely withered)). Moreover, the “herbicidal effect rating, A: late watergrass” value in the assay on late watergrass (AAH 320 g/ha) was 4 (Herbicidal rate of 70% or more and less than 90%). Moreover, the “herbicidal effect rating, B” value with Japanese bulrush (AAH 320 g/ha) was 5 (Herbicidal rate of 90% or more (almost completely withered)). For the same compound, in the assay with oval-leafed pondweed [2] (AAH 320 g/ha), the “herbicidal effect rating, C” value is listed as 5 (Herbicidal rate of 90% or more (almost completely withered)). For the same compound, the “herbicidal effect … (D)” value in the assay with Chinese sprangletop (320 g/ha) is 5 (Herbicidal rate of 90% or more (almost completely withered)). Further, in the assay on barnyard grass (setting [9]), the “H: barnyard grass” value was 5 (Herbicidal rate of 90% or more (almost completely withered)). In the assay with wild oat (setting [9]), the “I: wild oat, herbicidal effect grade” value is 3 (Herbicidal rate of 40% or more and less than 70%). In the assay with blackgrass (setting [9]), the “J: blackgrass, herbicidal effect grade” value is 4 (Herbicidal rate of 70% or more and less than 90%). For the same compound, the “N: redroot pigweed” value in the assay on redroot pigweed (setting [9]) was 5 (Herbicidal rate of 90% or more (almost completely withered)). The “O: lambsquarters” value in the assay with lambsquarters [3] (setting [9]) and in the assay with lambsquarters [6] (320 g/ha) was 5 (Herbicidal rate of 90% or more (almost completely withered)) each time. Besides, the “P: chickweed, herbicidal effect grade” value in the assay with chickweed [4] (setting [9]) is 4 (Herbicidal rate of 70% or more and less than 90%); in the assay on chickweed [7] (320 g/ha), 5 (Herbicidal rate of 90% or more (almost completely withered)). For the same compound, the “Q: false cleavers” value with false cleavers [5] (setting [9]) is 4 (Herbicidal rate of 70% or more and less than 90%); in the assay with false cleavers [8] (320 g/ha), 5 (Herbicidal rate of 90% or more (almost completely withered)). Further, the “K: Italian ryegrass” value in the assay with Italian ryegrass (320 g/ha) is reported as 5 (Herbicidal rate of 90% or more (almost completely withered)). Besides, the “R: persian speedwell” value with persian speedwell (320 g/ha) is recorded as 5 (Herbicidal rate of 90% or more (almost completely withered)).

In the case of `CCCC(=O)Oc1c(C)nn(C)c(=O)c1-c1c(-c2ccccc2OC)sc2cc(OC)ccc12` [Compound No. 3-066, 5-(6-methoxy-2-(2-methoxyphenyl)benzo[b]thiophen-3-yl)-1,3-dimethyl-6-oxo-1,6-dihydropyridazin-4-yl=(n-butyrate)], the “Herbicidal effect, C” value with oval-leafed pondweed [1] (setting [10]) is 5 (Herbicidal rate of 90% or more (almost completely withered)). For the same compound, the “herbicidal effect rating, A: late watergrass” value in the assay with late watergrass (AAH 296 g/ha) was 3 (Herbicidal rate of 40% or more and less than 70%). In addition, in the assay on Japanese bulrush (AAH 296 g/ha), the “herbicidal effect rating, B” value is 4 (Herbicidal rate of 70% or more and less than 90%). The “herbicidal effect rating, C” value with oval-leafed pondweed [2] (AAH 296 g/ha) was 5 (Herbicidal rate of 90% or more (almost completely withered)). Also, in the assay with Chinese sprangletop (296 g/ha), the “herbicidal effect … (D)” value is 1 (Herbicidal rate of 5% or more and less than 20%). The “H: barnyard grass” value in the assay with barnyard grass (setting [10]) is listed as 0 (Herbicidal rate of 5% or less (almost no effect)). Moreover, in the assay on wild oat (setting [10]), the “I: wild oat, herbicidal effect grade” value was 2 (Herbicidal rate of 20% or more and less than 40%). For the same compound, the “J: blackgrass, herbicidal effect grade” value in the assay on blackgrass (setting [10]) is 3 (Herbicidal rate of 40% or more and less than 70%). Besides, in the assay with redroot pigweed (setting [10]), the “N: redroot pigweed” value is 0 (Herbicidal rate of 5% or less (almost no effect)). The “O: lambsquarters” value is 0 (Herbicidal rate of 5% or less (almost no effect)) in the assay on lambsquarters [3] (setting [10]) and 5 (Herbicidal rate of 90% or more (almost completely withered)) in the assay with lambsquarters [6] (296 g/ha). In addition, the “P: chickweed, herbicidal effect grade” value in the assay with chickweed [4] (setting [10]) is 4 (Herbicidal rate of 70% or more and less than 90%); in the assay on chickweed [7] (296 g/ha), 5 (Herbicidal rate of 90% or more (almost completely withered)). The “Q: false cleavers” value was 2 (Herbicidal rate of 20% or more and less than 40%) in the assay on false cleavers [5] (setting [10]); 0 (Herbicidal rate of 5% or less (almost no effect)) with false cleavers [8] (296 g/ha). In addition, the “K: Italian ryegrass” value in the assay on Italian ryegrass (296 g/ha) is 4 (Herbicidal rate of 70% or more and less than 90%). The “R: persian speedwell” value in the assay with persian speedwell (296 g/ha) is 1 (Herbicidal rate of 5% or more and less than 20%).
